US20090275634A1 (priority 2006, published 2009)

Assays:
peritoneal macrophages [1] = assay type: cell-based, C57BL6 mice
peritoneal macrophages [2] = assay type: cell-based, C57BL6 mice; remark: listed apart in the source
[3] = test system: peritoneal macrophages from TLR9 KO mice; assay type: cell-based
[4] = test system: peritoneal macrophages derived from MyD88 KO mice; assay type: cell-based, MyD88 KO mice (C57BL6 background)
[5] = test system: peritoneal macrophages derived from MyD88 KO mice; assay type: cell-based, MyD88 KO mice (C57BL6 background); remark: listed apart in the source

5′-CTGCCACGTTCTCCTGCA*C*C*-3′ [nuclease resistant EN101]
MIP-2 secretion from PMs (peritoneal macrophages [1]): inhibited
levels of MIP-2 in the supernatants of PM (peritoneal macrophages [1]): strongly elevated
secretion of IL-6 from activated PMs (peritoneal macrophages [1]): did not induce secretion
secretion of TNF-α from activated PMs (peritoneal macrophages [1]): did not induce secretion
number of MAC-1 positive cells (peritoneal macrophages [2]): minor effect
survival/proliferation of total and activated peritoneal macrophages (peritoneal macrophages [2]; 72 hr): inhibited
number of total and MAC-1 positive cells [3]: reduced significantly
effect on MIP-2 levels in the supernatants of PMs [4]: almost totally inhibited
number of MAC-1 positive cells [5]: reduced significantly
